According to publication PMC3794980, “Identification of Conserved and HLA Promiscuous DENV3 T-Cell Epitopes” (PLoS Neglected Tropical Diseases, 2013):

Tests used:
DRB5*0101 = DRB5*0101 (Homo sapiens, UniProt P01903+Q30154); experiment: biochemical; assay type: binding
DRB3*0101 = DRB3*0101 (Homo sapiens, UniProt P01903+P79483); experiment: biochemical; assay type: binding

Structure (SMILES) | IC50 (DRB5*0101) | IC50 (DRB3*0101)
CC(C)C[C@H](NC(=O)[C@H](CC(=O)O)NC(=O)[C@H](Cc1ccccc1)NC(=O)[C@@H](N)Cc1ccccc1)C(=O)N1CCC[C@H]1C(=O)N[C@@H](CC(C)C)C(=O)N1CCC[C@H]1C(=O)N[C@@H](Cc1c[nH]c2ccccc12)C(=O)N[C@H](C(=O)N[C@@H](CO)C(=O)NCC(=O)N[C@@H](C)C(=O)N[C@H](C(=O)N[C@H](C(=O)N[C@@H](CCC(=O)O)C(=O)O)[C@@H](C)O)[C@@H](C)O)[C@@H](C)O [Envelope 211-225] | 16.2 µM | 
CC[C@H](C)[C@H](NC(=O)CNC(=O)[C@@H](NC(=O)[C@H](C)NC(=O)[C@@H](NC(=O)[C@H](CS)NC(=O)[C@@H](N)CO)[C@@H](C)CC)[C@@H](C)CC)C(=O)N[C@H](C(=O)N[C@H](C(=O)N[C@@H](CC(C)C)C(=O)N[C@@H](Cc1ccc(O)cc1)C(=O)N[C@@H](CC(C)C)C(=O)NCC(=O)N[C@@H](C)C(=O)N[C@H](C(=O)N[C@H](C(=O)N[C@@H](CCC(N)=O)C(=O)N[C@@H](C)C(=O)O)C(C)C)C(C)C)[C@@H](C)O)[C@@H](C)CC [Envelope 476-493] |  | 3.83 µM
CC[C@H](C)[C@H](NC(=O)CNC(=O)[C@H](CO)NC(=O)CNC(=O)[C@H](CS)NC(=O)[C@H](CCCCN)NC(=O)[C@H](CC(C)C)NC(=O)[C@H](CCC(=O)O)NC(=O)[C@H](CCCCN)NC(=O)CNC(=O)[C@H](CCCCN)NC(=O)[C@H](Cc1c[nH]c2ccccc12)NC(=O)[C@H](CC(N)=O)NC(=O)[C@@H](NC(=O)[C@@H](N)C(C)C)[C@@H](C)CC)C(=O)O [NS1 5-19] | 15.8 µM | 6.3 µM
CC[C@H](C)[C@H](NC(=O)[C@@H](NC(=O)[C@H](Cc1ccccc1)NC(=O)[C@H](CO)NC(=O)[C@H](CO)NC(=O)[C@H](CC(N)=O)NC(=O)[C@H](CCC(N)=O)NC(=O)[C@@H](NC(=O)[C@H](CCC(=O)O)NC(=O)[C@H](C)NC(=O)[C@@H](NC(=O)[C@@H](NC(=O)[C@@H](NC(=O)[C@H](CCCCN)NC(=O)[C@H](C)N)[C@@H](C)CC)C(C)C)[C@@H](C)O)[C@@H](C)O)[C@@H](C)CC)C(=O)O [NS1 121-135] | 9.46 µM | 1.24 µM
CC[C@H](C)[C@H](NC(=O)[C@@H](NC(=O)[C@@H](N)Cc1ccccc1)[C@@H](C)CC)C(=O)N[C@@H](CC(=O)O)C(=O)NCC(=O)N1CCC[C@H]1C(=O)N[C@@H](CC(N)=O)C(=O)N[C@H](C(=O)N1CCC[C@H]1C(=O)N[C@@H](CCC(=O)O)C(=O)N[C@@H](CS)C(=O)N1CCC[C@H]1C(=O)N[C@@H](CO)C(=O)N[C@@H](C)C(=O)N[C@@H](CO)C(=O)O)[C@@H](C)O [NS1 133-147] | 6.91 µM | 
CC[C@H](C)[C@H](NC(=O)[C@@H]1CCCN1C(=O)CNC(=O)[C@H](C)NC(=O)[C@H](CC(C)C)NC(=O)[C@H](CO)NC(=O)[C@H](CCCCN)NC(=O)[C@@H]1CCCN1C(=O)[C@@H](NC(=O)[C@@H](NC(=O)[C@H](CCSC)NC(=O)[C@H](CC(=O)O)NC(=O)[C@H](CO)NC(=O)[C@H](CCC(=O)O)NC(=O)[C@@H](N)CC(C)C)[C@@H](C)CC)[C@@H](C)CC)C(=O)O [NS1 237-251] | 14.8 µM | 2.71 µM
CC(C)C[C@H](NC(=O)[C@H](CCCNC(=N)N)NC(=O)[C@H](CCCCN)NC(=O)CNC(=O)[C@H](CC(N)=O)NC(=O)[C@H](Cc1ccc(O)cc1)NC(=O)[C@@H](NC(=O)[C@H](CC(C)C)NC(=O)[C@@H](N)C(C)C)[C@@H](C)O)C(=O)N[C@@H](CCC(=O)O)C(=O)N1CCC[C@H]1C(=O)N[C@@H](CC(N)=O)C(=O)N[C@@H](Cc1c[nH]c2ccccc12)C(=O)N[C@@H](C)C(=O)N[C@@H](CO)C(=O)O [NS3 57-71] | 3.76 µM | 5.43 µM
CSCC[C@H](NC(=O)[C@@H](NC(=O)[C@H](CCC(N)=O)NC(=O)[C@H](Cc1ccccc1)NC(=O)[C@H](CC(N)=O)NC(=O)[C@H](CCCCN)NC(=O)[C@@H]1CCCN1C(=O)[C@H](CC(N)=O)NC(=O)[C@H](CCCCN)NC(=O)CNC(=O)[C@@H]1CCCN1C(=O)[C@@H](N)CCC(=O)O)[C@@H](C)O)C(=O)N1CCC[C@H]1C(=O)NCC(=O)N[C@H](C(=O)O)[C@@H](C)O [NS3 101-115] | 1.08 µM | 4.12 µM
CC[C@H](C)[C@H](NC(=O)[C@@H]1CCCN1C(=O)[C@H](CO)NC(=O)CNC(=O)[C@H](CO)NC(=O)[C@@H](NC(=O)CNC(=O)[C@@H]1CCCN1C(=O)[C@H](CCCCN)NC(=O)[C@H](Cc1ccccc1)NC(=O)[C@H](CC(=O)O)NC(=O)[C@H](CC(C)C)NC(=O)[C@H](C)NC(=O)[C@@H](NC(=O)[C@H](C)N)[C@@H](C)CC)[C@@H](C)O)C(=O)O [NS3 125-139] | 4.35 µM | 9.22 µM
CC[C@H](C)[C@H](NC(=O)[C@@H](NC(=O)[C@@H]1CCCN1C(=O)[C@@H](N)CO)[C@@H](C)CC)C(=O)N[C@@H](CC(N)=O)C(=O)N[C@@H](CCCNC(=N)N)C(=O)N[C@@H](CCC(=O)O)C(=O)NCC(=O)N[C@@H](CCCCN)C(=O)N[C@H](C(=O)N[C@H](C(=O)NCC(=O)N[C@@H](CC(C)C)C(=O)N[C@@H](Cc1ccc(O)cc1)C(=O)NCC(=O)O)C(C)C)C(C)C [NS3 137-151] | 1.68 µM | 9.58 µM
CC[C@H](C)[C@H](NC(=O)[C@@H](NC(=O)[C@H](CC(C)C)NC(=O)[C@H](CC(N)=O)NC(=O)[C@H](CCCNC(=N)N)NC(=O)[C@H](CCCCN)NC(=O)[C@H](CCCCN)NC(=O)[C@H](Cc1ccccc1)NC(=O)[C@H](CCSC)NC(=O)[C@H](CCC(=O)O)NC(=O)[C@H](CCC(=O)O)NC(=O)[C@H](CCC(=O)O)NC(=O)[C@H](CC(C)C)NC(=O)[C@H](CCC(=O)O)NC(=O)[C@@H]1CCCN1)[C@@H](C)O)C(=O)O [NS3 177-191] |  | 10.7 µM
CC[C@H](C)[C@H](N)C(=O)N[C@@H](CCCNC(=N)N)C(=O)N[C@@H](Cc1ccc(O)cc1)C(=O)N[C@@H](CCC(N)=O)C(=O)N[C@H](C(=O)N[C@H](C(=O)N[C@@H](C)C(=O)N[C@H](C(=O)N[C@@H](CCCCN)C(=O)N[C@@H](CO)C(=O)N[C@@H](CCC(=O)O)C(=O)N[C@@H](Cc1c[nH]cn1)C(=O)N[C@H](C(=O)NCC(=O)N[C@@H](CCCNC(=N)N)C(=O)O)[C@@H](C)O)[C@@H](C)O)[C@@H](C)O)[C@@H](C)O [NS3 241-255] | 0.017 µM | 12.8 µM
CC[C@H](C)[C@H](NC(=O)[C@H](CO)NC(=O)[C@@H]1CCCN1C(=O)[C@@H](NC(=O)[C@H](Cc1ccccc1)NC(=O)[C@H](Cc1c[nH]c2ccccc12)NC(=O)[C@@H](NC(=O)[C@@H](NC(=O)[C@H](CCCCN)NC(=O)CN)[C@@H](C)O)C(C)C)C(C)C)C(=O)N[C@@H](CCCCN)C(=O)N[C@@H](C)C(=O)NCC(=O)N[C@@H](CC(N)=O)C(=O)N[C@@H](CC(=O)O)C(=O)O [NS3 357-371] | 0.273 µM | 
CC[C@H](C)[C@H](NC(=O)[C@H](CC(=O)O)NC(=O)[C@@H](NC(=O)[C@@H](NC(=O)[C@@H](NC(=O)[C@@H](NC(=O)[C@@H](N)Cc1ccccc1)C(C)C)C(C)C)[C@@H](C)O)[C@@H](C)O)C(=O)N[C@@H](CO)C(=O)N[C@@H](CCC(=O)O)C(=O)N[C@@H](CCSC)C(=O)NCC(=O)N[C@@H](C)C(=O)N[C@@H](CC(N)=O)C(=O)N[C@@H](Cc1ccccc1)C(=O)N[C@@H](CCCCN)C(=O)O [NS3 405-419] |  | 1.59 µM
CC[C@H](C)[C@H](NC(=O)[C@@H](NC(=O)[C@H](CCCNC(=N)N)NC(=O)[C@H](CC(=O)O)NC(=O)[C@H](C)NC(=O)[C@H](CCCCN)NC(=O)[C@H](Cc1ccccc1)NC(=O)[C@@H](N)CC(N)=O)C(C)C)C(=O)N[C@@H](CC(=O)O)C(=O)N1CCC[C@H]1C(=O)N[C@@H](CCCNC(=N)N)C(=O)N[C@@H](CCCNC(=N)N)C(=O)N[C@@H](CS)C(=O)N[C@@H](CC(C)C)C(=O)N[C@@H](CCCCN)C(=O)O [NS3 417-431] |  | 0.632 µM
CC[C@H](C)[C@H](NC(=O)[C@H](Cc1ccc(O)cc1)NC(=O)[C@H](CCC(N)=O)NC(=O)[C@H](CC(=O)O)NC(=O)[C@H](CC(N)=O)NC(=O)[C@H](CCC(=O)O)NC(=O)[C@H](CCCCN)NC(=O)[C@H](CCC(N)=O)NC(=O)[C@@H]1CCCN1C(=O)[C@@H](N)CC(N)=O)C(=O)N[C@@H](Cc1ccccc1)C(=O)N[C@H](C(=O)NCC(=O)N[C@@H](CCC(N)=O)C(=O)N1CCC[C@H]1C(=O)O)[C@@H](C)O [NS3 465-479] |  | 10.6 µM
CC[C@H](C)[C@H](NC(=O)CNC(=O)[C@H](CO)NC(=O)[C@H](CCCCN)NC(=O)[C@@H](N)CCCCN)C(=O)N[C@H](C(=O)N[C@@H](CCC(=O)O)C(=O)N[C@H](C(=O)N[C@@H](CC(=O)O)C(=O)N[C@@H](CCCNC(=N)N)C(=O)N[C@H](C(=O)N[C@@H](CCC(=O)O)C(=O)N[C@@H](C)C(=O)N[C@@H](CCCCN)C(=O)N[C@@H](CCC(=O)O)C(=O)NCC(=O)N[C@@H](CC(C)C)C(=O)O)[C@@H](C)O)C(C)C)[C@@H](C)O [NS5 29-45] |  | 5.38 µM
CC[C@H](C)[C@H](NC(=O)[C@H](CS)NC(=O)[C@H](Cc1ccccc1)NC(=O)[C@H](CCC(N)=O)NC(=O)[C@H](CC(N)=O)NC(=O)[C@H](CC(N)=O)NC(=O)[C@H](CCCCN)NC(=O)[C@H](CC(C)C)NC(=O)[C@H](Cc1c[nH]c2ccccc12)NC(=O)[C@@H]1CCCN1C(=O)[C@H](CCC(=O)O)NC(=O)[C@@H](NC(=O)[C@H](CCSC)NC(=O)[C@H](CCCCN)NC(=O)[C@@H](N)CC(C)C)C(C)C)C(=O)N[C@@H](CCCCN)C(=O)N[C@H](C(=O)O)C(C)C [NS5 165-181] | 0.02 µM | 
CSCC[C@H](NC(=O)[C@H](C)NC(=O)[C@H](CCSC)NC(=O)[C@H](CCC(N)=O)NC(=O)[C@@H](NC(=O)[C@@H](NC(=O)[C@H](CCSC)NC(=O)[C@@H]1CCCN1C(=O)[C@@H](NC(=O)[C@@H](NC(=O)[C@H](CC(=O)O)NC(=O)[C@H](Cc1c[nH]c2ccccc12)NC(=O)[C@@H]1CCCN1)C(C)C)C(C)C)C(C)C)[C@@H](C)O)C(=O)N[C@H](C(=O)N[C@@H](CC(=O)O)C(=O)N[C@H](C(=O)N[C@H](C(=O)O)[C@@H](C)O)[C@@H](C)O)[C@@H](C)O [NS5 330-346] | 1.04 µM | 
CC[C@H](C)[C@H](NC(=O)[C@@H]1CCCN1C(=O)[C@H](CCCCN)NC(=O)[C@@H](NC(=O)[C@@H](NC(=O)[C@H](CS)NC(=O)[C@@H](N)CC(=O)O)C(C)C)C(C)C)C(=O)N[C@@H](CC(=O)O)C(=O)N[C@@H](CC(=O)O)C(=O)N[C@@H](CCCNC(=N)N)C(=O)N[C@@H](Cc1ccccc1)C(=O)N[C@@H](C)C(=O)N[C@@H](CC(N)=O)C(=O)N[C@@H](C)C(=O)N[C@@H](CC(C)C)C(=O)N[C@@H](CC(C)C)C(=O)N[C@@H](C)C(=O)O [NS5 664-680] |  | 4.09 µM
